Patent publication US20160097044A1, “Antimicrobial Enzyme Fusions Reduce Resistance and Kill Intracellular Staphylococcus aureus” (The United States of America, as Represented by the …, priority 2014, published 2016)

Key:
[1] = tested on: S. aureus; experiment: Murine model of staphylococcal osteomyelitis (femur); type: in vivo, C57BL/6J mice; conditions: 5 mg/kg i.m. at site of infection, twice in 24 h, N=6
Experimental: Neonatal mouse whole calvaria were treated for 4 hours with chimeric peptidoglycan hydrolases or buffer alone, 24 hours post inoculation with GFP-expressing S. aureus. Calvaria were embedded in freeze media, sectioned, and subjected to fluorescence imaging. The image shown is a representative figure for triplicate sections of three separate calvaria. FIG. 8b depicts fluorescence intensity from these sections measured in ImageJ and defined as arbitrary fluorescence standardized to the untreated control. Error bars represent SEM of four replicate experiments. FIG. 8c depicts ex-vivo intracellular S. aureus eradication. Infected calvaria were homogenized and CFU were counted post treatment. Error bars represent SEM. FIG. 8d depicts a murine model of staphylococcal osteomyelitis. C57BL/6J mice were anesthetized and their femurs were surgically exposed. […] The femurs were removed, homogenized, and plated to quantify the bacterial load. […] Asterisks represent statistical significance as determined by one-way ANOVA followed by Tukey's posthoc test.
We utilized a previously described (Marriott, supra) murine model of staphylococcal osteomyelitis that reproduces the clinical and gross pathological phases of inflammatory bone diseases, such as human post-traumatic osteomyelitis. […] Asterisks represent statistical significance as determined by one-way ANOVA followed by Tukey's posthoc test.

[2] = tested on: intracellular S. aureus Newbould 305 in bovine mammary epithelial cell line (MAC-T); experiment: Intracellular S. aureus eradication assay in MAC-T cells; type: cell-based; conditions: 25 μg in 1 ml DMEM, 2.5 h
From the text: (§1) FIGS. 5a-5e depict peptidoglycan hydrolase-protein transduction domain (PGH-PTD) eradication of intracellular S. aureus in cultured cells. Cultured cells were infected, treated with gentamicin to kill extracellular S. aureus, and then treated with the peptidoglycan hydrolases indicated. All results are standardized to the gentamicin (GENT) only control. Nomenclature of the peptidoglycan hydrolase constructs is as in FIG. 1. Asterisks indicate statistical significance detected with single factor ANOVA (α=0.05) with paired t-test posthoc analyses α=0.05 adjusted with Sidák correction for multiple comparisons (for all cases p<0.01). […] Error bars represent SEM. […] Yellow staining in the combined panel represents intracellular co-localization (in a single plane as determined by z-stack analysis) of both S. aureus and K-L-PTD1 (blue arrow). […]
(§2) Three similar intracellular S. aureus eradication assays from three different labs were optimized for (A) a cultured bovine mammary epithelial cell line (MAC-T, Nexia Biotechnologies, Quebec, Canada; Almeida, supra), (B) primary C57BL/6 mouse-derived osteoblasts (mOBs) (McCall et al. 2008. J. Bone Miner. Res. 23: 30-40) or (C) human brain microvascular endothelial cells (hBMEC; Stins, supra). […] The cell lysate was subjected to serial dilution plating, and the resultant CFUs were counted and normalized to the gentamicin control for each assay. […]

[3] = tested on: intracellular S. aureus strain UAMS-1 in primary mouse-derived osteoblasts (mOBs); experiment: Intracellular S. aureus eradication assay in murine osteoblasts; type: cell-based; conditions: mOB, 5 μg/ml, 2 h
From the text: as §1, §2

Substance: K-L: both LysK lytic domains fused to the N-terminus of lysostaphin; SEQ ID NO:5, protein SEQ ID NO:6
- bacterial load in femur compared to no treatment [1]: significantly reduced bacterial load as compared to no treatment
- intracellular S. aureus CFUs relative to gentamicin only control [2]: reduced the intracellular bacteria recovered
- intracellular S. aureus CFUs relative to gentamicin only control [3]: reduced the intracellular bacteria recovered
